According to US10682370B2, “Topical antiviral composition containing a local anesthetic and method of making the same” (priority 2013, dated 2020):
Structures can show the parent of a compound that is named as a salt.

What was measured:
HSV-1 = settings: in vitro; cited from earlier work
[1] = Accelerated stability of sorivudine/lidocaine cream formulas stored in 40° C./75% RH; format: physicochemical
Text: In the above Table 3, the six (6)-month accelerated stability assay data's for both formulations, i.e. Example 8 and Example 9 (containing BHT) were stable.

[2] = administered concurrently with 5-FU; cited from earlier work
[3] = acidic environment, accelerated test
[4] = neutral environment, 6 month accelerated test

Assay of sorivudine remaining [1, 4] [%]	Structure (SMILES)	Selectivity ratio for the inhibitory activity against HSV-1 (HSV-1)	Change of assay (in words) [1, 3]	Change of assay (in words) [1, 4]	Toxicity on concurrent administration with 5-fluorouracil (5-FU) [2]
	Nc1nc2c(ncn2COCCO)c(=O)[nH]1 [Acyclovir, acyclovir]	about 2000			
	CCN(CC)CC(=O)Nc1c(C)cccc1C [lidocaine HCl, 2-(diethylamino)-N-(2,6-dimethylphenyl)-acetamide]		no change	almost no change	
66	O=c1[nH]c(=O)n([C@@H]2O[C@H](CO)[C@@H](O)[C@@H]2O)cc1/C=C/Br [sorivudine]		no change		major toxicity (myelosuppression)
